Data set [1] has as its system HT1080 fibrosarcoma cells. The data set is described as follows: Survival experiment with HT1080 cells derived from doxorubicin relapsed mice. The data set is classed as in vivo. The procedure: Additional survival experiments were undertaken. HT1080 fibrosarcoma cells were used in this experiment that derived from doxorubicin relapsed mice. The cells from tumor were excised as single cell suspension for quick isolation from tissue for subsequent luminescent labeling, then they were cultured in vitro and re-transplanted.

The subject of the next data set is T47-D (ER+) cells. To be noted: cited from earlier work.
The test system of data set [2] is MDA 231 (ER-) breast cell carcinoma cells. To be noted: cited from earlier work.
The test system of data set [3] is chondrosarcoma and fibrosarcoma.
The next data set concerns EZH2. The data set is described as follows: EZH2 mRNA expression in 3D HT1080 lysates. Conditions: 3D lysates, TPA 20 μg/mL. The data set is classed as cell-based. The text has this:
(§1) Experiments herein (FIG. 13) indicated there was statistically significant inhibition in 3DHT1080 cell line for EZH2, and its targets, embryonic transcription factor Nanog (Villasante et al., Cell Cycle. 10 (9): 1488-498, 2011), and cancer stem cell marker […], ALDH1A1 (Li et al., Cancer Prev Res (Phila). 25 (3): 484-491 2012). Aldehyde dehydrogenase (ALDH) is an established marker of CSCs in several neoplasms. Cells expressing high levels of ALDH have been isolated in a number of human sarcoma cell lines, including the human chondrosarcoma SW 1353 cell line (Lohberger et al., PLOS One 7).

The test system of a further data set is ALDHA. The data set is described as follows: ALDHA mRNA expression in 3D HT1080 lysates. Conditions: 3D lysates, TPA 20 μg/mL. The data set is classed as cell-based.
Description: as §1

For data set [4], the system named is osteosarcoma cell line MNNG. Put plainly: Rapid cell proliferation assay, MNNG. The data set is classed as cell-based. Conditions: only the highest dose of 40 μg/ml, 48 hours. On the procedure:
(§2) The effects of TPA on three osteosarcoma cell lines OSA, KHOS, MNNG was analyzed (FIG. 11). Rapid cell proliferation was measured by a Rapid Cell Proliferation Kit, EMD Biosciences (QIA127). Cells were seeded at 5×10^4 cells/100 μl culture in a multi-well plate and incubated overnight at 37° C. in 5% CO2 incubator. The actual assay was performed the next day. The rapid cell proliferation assay is based on the activity of mitochondrial enzymes active in viable cells. TPA was added to corresponding wells just after seeding, and before overnight incubation. The 96-well assay measures colorimetric product like formazan because of WST-1 tetrazolium salt cleavage by the mitochondrial dehydrogenases. TPA exerted its effect in all cell lines 48 hours after the incubation. […] (FIG. 11)

For data set [5] the following is noted: mouse, in vivo.
The subject of the next data set is HT1080 fibrosarcoma. The data set is described as follows: HT1080 fibrosarcoma nude mice model (IVIS, tumor volume, tumor weight). The data set is classed as in vivo. The procedure: A nude mice model was used in which animals receive orthotopic inoculation of highly metastatic JJ012 chondrosarcoma or HT1080 fibrosarcoma tumor cell lines or primary cell lines labeled with extremely red bright fluorescent protein PTDT-N1.
Disease progression is evaluated through clinical signs and animal-relevant responses, tumor size analysis, real-time fluorescence and bioluminescence imaging (IVIS) of both in vivo and ex vivo disease-specific tumor microenvironments and lung metastases.
Monitoring of the solid tumors is as follows (when visible, tumors will be measured by noninvasive imaging or caliper at least weekly). Experimental endpoints depend on the site of transplantation. Mice are euthanized before they reach a tumor volume of 2 cm^3 for a single or multiple tumors. The overriding consideration for humane endpoints of these oncological experiments will be the overall health of the animal. Animals are weighed at least once a week for fast growing tumors (reaching endpoint before 3 months after transplantation) and at least once a month for slow growing tumors. Any tumor-bearing animal are euthanized immediately if the tumor impairs ambulation or eating. […] Animals bearing tumors in such locations are euthanized before the tumors reach the above-stated dimensions.
Tumor-bearing mice are photographed either at the experimental endpoint or using noninvasive imaging technologies to monitor tumor progression. Also contemplated is imaging in vivo for evidence of tumor progression (BLI, IVIS), and observance of clinical signs of metastases (listlessness, weight loss, or hunched posture). Tumors and lungs are harvested to confirm presence of lung metastases and further analyzed: tumors are weighed, photographed, and sectioned into samples designated half for 10% formalin fixation analysis or half for snap-freeze in liquid nitrogen for future analysis.

The next data set concerns Nanog. Put plainly: Nanog mRNA expression in 3D HT1080 lysates. The data set is classed as cell-based. To be noted: 3D lysates, TPA 20 μg/mL.
Description: as §1

Another data set deals with HOXC13 proteins. The data set is described as follows: Inhibition of HOXC13 proteins.
A further data set has as its system Nanog protein. The data set is described as follows: Nanog protein expression in 3D HT1080 cells, western blot. The data set is classed as cell-based. Conditions: 40 μg/ml.
Data set [6] can be described thus: Acute and cumulative toxicity in mice.
The subject of data set [7] is 3D fibrosarcoma spheroids. The data set is described as follows: Self-renewal assay with 3D fibrosarcoma. The data set is classed as cell-based.
The next data set deals with fibrosarcoma spheroids. Put plainly: Neutral red cytotoxicity assay. The data set is classed as cell-based.
Data set [8] relates to osteosarcoma cell line KHOS. Put plainly: Rapid cell proliferation assay, KHOS. The data set is classed as cell-based. To be noted: 48 h. The procedure:
as §2

Data set [9] relates to cardiomyocyte cell line AC16. The data set is described as follows: Cardiotoxicity in cardiomyocyte cell line AC16. The data set is classed as cell-based. To be noted: 24 hours; TPA 40 μg/mL, Doxo 2 mM. The procedure:
Cardiotoxicity results of TPA, Doxo and TPA+Doxo combo were analyzed in cardiomyocyte cell line AC16. Cells were treated 24 hours with C (control, DMSO 0.5%), TPA (40 μg/mL), Doxo (Doxorubicin, 2 mM), and TPA (40 μg/mL)+Doxo (2 mM). (FIG. 10). […] Thus, overall survival increases observed in vivo should be attributed to TPA's ability to target and eliminate cancer stem cells.

The test system of data set [10] is HT1080 cells. Put plainly: Rapid cell proliferation assay, HT1080, cyclic versus non-cyclic TPA. To be noted: 40 μg/ml. The data set is classed as cell-based. The procedure: Rapid cell proliferation assay was carried out using a Rapid Cell Proliferation Kit, EMD Biosciences (QIA127) (Galoian K, Tumor Biology 32 (4): 745-51, 2011). Cells were seeded at 5×10^4 cells/100 μl culture in the multi-well plate and incubated overnight at 37° C. in 5% CO2 incubator. The actual assay was performed the next day. The rapid cell proliferation assay is based on the activity of mitochondrial enzymes active in viable cells. PRP-1 was added to corresponding wells just after seeding, before overnight incubation. The colorimetric 96-well assay measures colorful product like formazan because of WST-1 tetrazolium salt cleavage by the mitochondrial dehydrogenases. The formazan formation is then quantified by measuring the change in absorbance at 450 nm in a microplate reader. The activity of mitochondrial dehydrogenases is proportional to cell number. No washing, harvesting, or solubilization steps are required. In this series of experiments, PRP-1 was added to corresponding wells immediately after seeding and cell attachment followed by overnight incubation according to the manufacturer's instructions.
The cyclic version was created to protect the peptide from being degraded by proteases in vivo. The cyclic peptide was tested for its potency in a rapid cell proliferation assay using HT1080 cells as described above using 40 μg/ml TPA or cyclic TPA in the assay.

Data set [11] concerns HT1080 cells. The data set is classed as cell-based, human. The text has this: Analysis of anti-proliferative activity in HT1080 cells was examined.

Where two headings read alike, the source gives them in different places. Residues, ends and D or L forms follow the SMILES beside them. No end group written: not given here.

In [1] (10 mice per group, control (PBS) 21 days), `COc1cccc2c1C(=O)c1c(O)c3c(c(O)c1C2=O)C[C@@](O)(C(=O)CO)C[C@@H]3O[C@H]1C[C@H](N)[C@H](O)[C@H](C)O1` [doxorubicin] showed a median survival of 28 days. The “overall Median Survival advantage” value in [1] (mice re-transplanted with cells from doxorubicin relapsed tumors) is 33%.
Consider AGAPEPAEPAQPGVY [PRP-1], for which, in the data set on T47-D (ER+) cells, the “inhibitory effect on cell growth” value is given as “no inhibitory effect”. Besides, the “inhibition of cell growth” value in data set [2] (0.5 μg/ml PRP-1) is listed as 71%; in data set [2] (1 μg/ml PRP-1), 63%; in data set [2] (10 μg/ml), 44%.
For SETPEPKGPADPELY [TPA, SETPEPKGPADPELY], in data set [3], the “inhibition of chondrosarcoma and fibrosarcoma growth” value was 80-90%. Also, in the data set with EZH2, the “EZH2 mRNA fold decrease versus control” value is on record as 5 fold. In the data set with EZH2 (normalized to GAPDH mRNA), the “reduced expression of EZH2” value is listed as 80%. Further, the “ALDHA mRNA fold decrease versus control” value in the data set with ALDHA came to 3.22 fold. In the data set on ALDHA (normalized to GAPDH mRNA), the “reduced expression of ALDHA” value turned out to be 69%. In addition, in data set [4], the growth inhibition entry is on record as “inhibited growth”. In data set [5], the “blood count and chemistry” value is “no change in blood count and chemistry”. Also, the “tumor volume versus Control” value in the data set on HT1080 fibrosarcoma (by day 18) is on record as “trend toward decreased tumor volume”. In addition, the “tumor weights at necropsy versus Control” value with HT1080 fibrosarcoma (day after Day 14) is reported as “no difference in tumor weights”. Besides, in the data set on HT1080 fibrosarcoma (through Day 14, IVIS % Growth p<0.001), the “IVIS tumor growth compared to Control” value is reported as “decreased growth”. The “Nanog mRNA fold decrease versus control” value in the data set on Nanog is listed as 7.69 fold. In addition, the “reduced expression of Nanog” value in the data set with Nanog (normalized to GAPDH mRNA) came to 87%. The “inhibition of HOXC13 proteins” value with HOXC13 proteins is listed as “inhibits in a statistically significant manner”. Moreover, in the data set on Nanog protein, the “inhibition of Nanog protein in comparison with control” value amounted to 47%. Besides, the cumulative toxicity entry in data set [6] (following 14 days of TPA treatment) is given as “no cumulative toxicity”. For the same compound, in data set [6] (up to 100 mg/kg), the “acute toxicity (change in weight or behavior)” value is listed as “No acute toxicity”. Besides, in data set [7] (20 μg/ml), the “effect on spheroids in comparison to not treated control” value is “destruction and shrinkage of the spheroid”; the “viability of the shrunken spheroids by viability assay” value is reported as “non viable”. Besides, in data set [7] (40 μg/ml), the spheroid formation entry is on record as “completely prevented spheroid formation”. In addition, the “cytotoxic effect relative to doxorubicin (DO)” value in the data set on fibrosarcoma spheroids (40 μg/ml) is listed as “almost that in cytotoxic doxorubicin”. Besides, the “viability of fibrosarcoma spheroids” value with fibrosarcoma spheroids (increased concentration of TPA peptide) is recorded as “dose response decrease in viability”. Also, in [8], the growth inhibition turned out to be 40%. The cytotoxicity in cardiomyocytes entry in data set [9] is given as “did not show any toxicity”.
Regarding `CC(C)C[C@@H]1NC(=O)[C@H](CCC(=O)O)NC(=O)[C@@H]2CCCN2C(=O)[C@H](CC(=O)O)NC(=O)[C@H](C)NC(=O)[C@@H]2CCCN2C(=O)CNC(=O)[C@H](CCCCN)NC(=O)[C@@H]2CCCN2C(=O)[C@H](CCC(=O)O)NC(=O)[C@@H]2CCCN2C(=O)[C@H]([C@@H](C)O)NC(=O)[C@H](CCC(=O)O)NC(=O)[C@H](CO)NC(=O)[C@H](Cc2ccc(OP(=O)(O)O)cc2)NC1=O` [cyclic TPA, Cyclo(Ser-Glu-Thr-Pro-Glu-Pro-Lys-Gly-Pro-Ala-Asp-Pro-Glu-Leu-Tyr (PO3H2))] (HELM PEPTIDE1{A.D.P.E.L.[O=C([C@H](Cc1ccc(OP(=O)(O)O)cc1)N[*:1])[*:2]].S.E.T.P.E.P.K.G.P}$PEPTIDE1,PEPTIDE1,1:R1-15:R2$$$V2.0), in the data set with HT1080 cells [10], the “improvement over non-cyclic TPA” value is roughly 1.5 fold and the “inhibition of cell growth compared to control” value was “over 50%”.
On to “SETPEPKGPADPELY [TPA 1, SETPEPKGPADPELY]”, for which the “IC50, anti-proliferative activity” value in the data set with HT1080 cells [11] was determined as 21 mg/L. Moreover, the “concentration of maximum effect” value in the data set on HT1080 cells [11] (HT1080 human fibrosarcoma, dose response) worked out at 40 µg/mL. Also, in the data set on HT1080 cells [11] (visual, maximum effect with 40 μg/ml), the “effect on cancer stem cell spheroids” value is on record as “destruction of cancer stem cell spheroids in dose response manner”.
